In patent US12421253B2 (Mirati Therapeutics, Inc., priority 2020, dated 2025):

How the values were obtained:
[1] = tested on: ASPC1 cells, pERK; test: Inhibition of KRas phosphorylation of ERK (Cisbio HTRF Advanced pERK assay); assay type: cell-based; details: Homo sapiens, ASPC1, 3 h, AsPC-1 cells, read-out: Inhibition (HTRF IC50 nM) of KRas-mediated Phosphorylation of ERK, AsPC-1
Method in brief: (§1)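 pERK measured by HTRF in lysates from cells treated 3 h with compound, 10 uM top, 3-fold steps, 10 doses, 0.8% DMSO final. Cells (6,000/well, RPMI 10% FBS) had been plated overnight at 37 °C; 0.2 uM trametinib defined minimum signal; antibody detection 2 h at room temperature.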

[2] = tested on: MKN1 cells, pERK; test: as above; assay type: cell-based; details: Homo sapiens, MKN-1, 3 h, read-out: Inhibition (HTRF IC50 nM) of KRas-mediated Phosphorylation of ERK, MKN1
Method in brief: as §1

[3] = tested on: H460 cells, pERK; test: as above; assay type: cell-based; details: Homo sapiens, NCI-H460, 3 hrs, read-out: Inhibition (HTRF IC50 nM) of KRas-mediated Phosphorylation of ERK, H460
Method in brief: as §1

[4] = tested on: H727 cells, pERK; test: as above; assay type: cell-based; details: Homo sapiens, NCI-H727, 3 h, read-out: Inhibition (HTRF IC50 nM) of KRas-mediated Phosphorylation of ERK, H727
Method in brief: as §1

[5] = tested on: PSN1 cells, pERK; test: as above; assay type: cell-based; details: Homo sapiens, PSN1, 3 h, read-out: Inhibition (HTRF IC50 nM) of KRas-mediated Phosphorylation of ERK, PSN1
Method in brief: as §1

[6] = tested on: H358 cells, pERK; test: as above; assay type: cell-based; details: Homo sapiens, NCI-H358, 3 hrs, read-out: Inhibition (HTRF IC50 nM) of KRas-mediated Phosphorylation of ERK, H358
Method in brief: as §1

[7] = biological target: T1, KRas^G12V (Homo sapiens, UniProt P01116, G12V); test: KRas binding assay (TR-FRET displacement of Cy5 labelled tracer)
T1 construct: […]; biotin (biotinylated); purchased Accelegan Inc
T1 sequence (P01116 1-169 isoform P01116-2 G12V): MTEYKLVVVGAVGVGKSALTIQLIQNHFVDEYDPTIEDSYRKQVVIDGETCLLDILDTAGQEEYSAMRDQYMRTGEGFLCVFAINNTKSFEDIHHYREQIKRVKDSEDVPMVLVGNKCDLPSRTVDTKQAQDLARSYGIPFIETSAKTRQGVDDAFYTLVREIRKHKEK

[8] = biological target: T2, KRas^G12R (Homo sapiens, UniProt P01116, G12R); test: as above
T2 construct: […]; biotin (biotinylated); purchased Accelegan Inc
T2 sequence (P01116 1-169 isoform P01116-2 G12R): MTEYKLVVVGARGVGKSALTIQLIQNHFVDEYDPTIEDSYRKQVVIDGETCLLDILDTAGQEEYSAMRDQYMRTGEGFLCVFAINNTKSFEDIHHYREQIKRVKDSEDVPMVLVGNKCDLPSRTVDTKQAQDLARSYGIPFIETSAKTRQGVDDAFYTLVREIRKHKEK

[9] = biological target: T3, KRas^G12D (Homo sapiens, UniProt P01116, G12D); test: as above
T3 construct: […]; biotin (biotinylated); purchased Accelegan Inc
T3 sequence (P01116 1-169 isoform P01116-2 G12D): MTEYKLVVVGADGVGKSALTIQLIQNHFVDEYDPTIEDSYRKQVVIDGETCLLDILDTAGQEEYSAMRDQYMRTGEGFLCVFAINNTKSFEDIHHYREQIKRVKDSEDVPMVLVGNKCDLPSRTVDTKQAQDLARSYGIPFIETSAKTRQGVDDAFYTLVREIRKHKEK

[10] = tested on: A549 cells, pERK; test: Inhibition of KRas phosphorylation of ERK (Cisbio HTRF Advanced pERK assay); assay type: cell-based; details: Homo sapiens, 3 hrs, read-out: Inhibition (HTRF IC50 nM) of KRas-mediated Phosphorylation of ERK, A549
Method in brief: as §1

[11] = tested on: HCT116 cells, pERK; test: as above; assay type: cell-based; details: Homo sapiens, HCT-116, 3 hrs, read-out: Inhibition (HTRF IC50 nM) of KRas-mediated Phosphorylation of ERK, HCT116
Method in brief: as §1

[12] = tested on: NCI-H460 (Q61H) cells, phospho-ERK; test: Inhibition of KRas-mediated phosphorylation of ERK (phospho-ERK/GAPDH antibody detection, LI-COR); assay type: cell-based; details: Homo sapiens, 3 hours
Experimental: (§2) AsPC-1 (G12D, ATCC CRL-1682), A549 (G12S, ATCC CCL-185), HCT116 (G13D, ATCC CCL-247) cells were grown in DMEM medium supplemented with 10% fetal bovine serum and Penicillin/Streptomycin. NCI-H358 (G12C, ATCC CRL-5807), NCI-H460 (Q61H, ATCC HTB-117), NCI-H727 (G12V, ATCC CRL-5815), MKN1 (WTdep, JCRB JCRB0252), PSN-1 (G12R, ATCC CRM-CRL-3211) cells were grown in RPMI medium supplemented with 10% fetal bovine serum, 10 mM HEPES, 10 mM Sodium Pyruvate, and Penicillin/Streptomycin. Cells were plated in black well clear bottom tissue culture treated 96 well plates (Corning, 3904) at a density of 20,000 cells/well and allowed to attach for 12-14 hours. Diluted compounds were then added in a final concentration of 0.5% DMSO. After 3 hours, 50 μL of 4.0% formaldehyde was added and the plates incubated at room temperature for 20 minutes. The plates were then dumped and permeabilized with 150 μL of ice cold 100% methanol for 10 minutes. Non-specific antibody binding to the plates was blocked using 100 μL Odyssey blocking buffer (LI-COR Biosciences, 927-60010) for 1 hour at room temperature.
(§3) The amount of phospho-ERK was determined using an antibody specific for the phosphorylated form of ERK and compared to the amount of GAPDH. Primary antibodies used for the detection were added as follows: Phospho-ERK (Cell Signaling CS-9101) diluted 1:500 and GAPDH (Millipore MAB374) diluted 1:5000 in Odyssey blocking buffer+0.05% Tween 20. The plates were incubated overnight at 4 C. The plates were washed 3× with 150 uL PBS+0.1% Tween 20.
(§4) Secondary antibodies used to visualize primary antibodies were added as follows: Goat Anti-Rabbit-800 (LI-COR, 926-32211) and Goat Anti-Mouse-680 (LI-COR, 926-68070) diluted 1:800 both in Odyssey blocking buffer+0.05% Tween 20 and were incubated for 1 hour at room temperature. The plates were washed 3× with 150 uL PBS+[…]. Plates were imaged dry on a Li—COR Odyssey CLX plate reader.
(§5) The phospho-ERK (Thr202/Tyr204) signal was normalized to the GAPDH signal for each well and percent of DMSO control values were calculated. IC50 values were generated using a 4-parameter fit of the dose response curve.

[13] = tested on: NCI-H727 (G12V) cells, phospho-ERK; test: as above; assay type: cell-based; details: Homo sapiens, 3 hours
Experimental: as §2, §3, §4, §5

[14] = tested on: AsPC-1 (G12D) cells, phospho-ERK; test: as above; assay type: cell-based; details: Homo sapiens, ASPC1, 3 hours
Experimental: as §2, §3, §4, §5

| IC50 [1] | IC50 [2] | IC50 [3] | IC50 [4] | IC50 [5] | IC50 [6] | IC50 [7] | IC50 [8] | IC50 [9] | IC50 [10] | IC50 [11] | SMILES | IC50 [12] | IC50 [13] | IC50 [14] |
| --- | --- | --- | --- | --- | --- | --- | --- | --- | --- | --- | --- | --- | --- | --- |
| 2 nM | 6 nM | 49 nM | 6 nM | 5450 nM | 3 nM | ≤ 2 nM | ≤ 2 nM | ≤ 2 nM | – | – | CCc1c(F)ccc2cc(O)cc(N3CCc4c(nc(OC[C@@]56CCCN5C[C@H](F)C6)nc4N4CCCn5nc(C(=O)N(C)C)c(F)c5C4)C3)c12 [Example 190, 5-(7-(8-ethyl-7-fluoro-3-hydroxynaphthalen-1-yl)-2-(((2R,7aS)-2-fluorotetrahydro-1H-pyrrolizin-7a(5H)-yl)methoxy)-5,6,7,8-tetrahydropyrido[3,4-d]pyrimidin-4-yl)-3-fluoro-N,N-dimethyl-5,6,7,8-tetrahydro-4H-pyrazolo[1,5-a][1,4]diazepine-2-carboxamide] | – | – | – |
| 71 nM | 100 nM | 426 nM | 115 nM | ≥ 10000 nM | 63 nM | ≤ 2 nM | ≤ 2 nM | ≤ 2 nM | – | – | CCc1c(F)ccc2cc(O)cc(N3CCc4c(nc(OC[C@@]56CCCN5C[C@H](F)C6)nc4N4CCCc5nn(C(=O)N(C)C)cc5C4)C3)c12 [Example 194, 5-(7-(8-ethyl-7-fluoro-3-hydroxynaphthalen-1-yl)-2-(((2R,7aS)-2-fluorohexahydro-1H-pyrrolizin-7a-yl)methoxy)-5,6,7,8-tetrahydropyrido[3,4-d]pyrimidin-4-yl)-N,N-dimethyl-5,6,7,8-tetrahydropyrazolo[4,3-c]azepine-2(4H)-carboxamide] | – | – | – |
| 132 nM | 181 nM | 1100 nM | 283 nM | ≥ 10000 nM | – | 52 nM | 3 nM | ≤ 2 nM | 524 nM | 1700 nM | CCc1c(F)ccc2cc(O)cc(N3CCc4c(nc(OCC5(CN(C)C)CC5)nc4N4CCCn5nc(C(=O)N(C)C)cc5C4)C3)c12 [Example 203, 5-(2-((1-((dimethylamino)methyl)cyclopropyl)methoxy)-7-(8-ethyl-7-fluoro-3-hydroxynaphthalen-1-yl)-5,6,7,8-tetrahydropyrido[3,4-d]pyrimidin-4-yl)-N,N-dimethyl-5,6,7,8-tetrahydro-4H-pyrazolo[1,5-a][1,4]diazepine-2-carboxamide] | – | – | – |
| 125 nM | 34 nM | 331 nM | 114 nM | 2770 nM | – | ≤ 2 nM | ≤ 2 nM | ≤ 2 nM | 98 nM | 709 nM | O=C1NC(=O)C2CN(c3nc(OC[C@@]45CCCN4C[C@H](F)C5)nc4c3CCN(c3cc(O)cc5ccc(F)c(Cl)c35)C4)CC12 (stereo partly drawn) [Example 232, 5-(7-(8-chloro-7-fluoro-3-hydroxynaphthalen-1-yl)-2-(((2R,7aS)-2-fluorohexahydro-1H-pyrrolizin-7a-yl)methoxy)-5,6,7,8-tetrahydropyrido[3,4-d]pyrimidin-4-yl)tetrahydropyrrolo[3,4-c]pyrrole-1,3(2H,3aH)-dione] | – | – | – |
| 185 nM | 185 nM | 1240 nM | 344 nM | ≥ 10000 nM | – | ≤ 2 nM | 5 nM | ≤ 2 nM | 671 nM | 1950 nM | CCc1c(F)ccc2cc(O)cc(N3CCc4c(nc(OC[C@@H]5CCCN5C)nc4N4CCCn5nc(C(=O)N(C)C)cc5C4)C3)c12 [Example 198, 5-[7-(8-ethyl-7-fluoro-3-hydroxy-1-naphthyl)-2-[[(2S)-1-methylpyrrolidin-2-yl]methoxy]-6,8-dihydro-5H-pyrido[3,4-d]pyrimidin-4-yl]-N,N-dimethyl-4,6,7,8-tetrahydropyrazolo[1,5-a][1,4]diazepine-2-carboxamide] | – | – | – |

The remaining lines, values behind:

| SMILES | IC50 [1] | IC50 [2] | IC50 [3] | IC50 [4] | IC50 [5] | IC50 [6] | IC50 [7] | IC50 [8] | IC50 [9] | IC50 [10] | IC50 [11] | IC50 [12] | IC50 [13] | IC50 [14] |
| --- | --- | --- | --- | --- | --- | --- | --- | --- | --- | --- | --- | --- | --- | --- |
| CCc1c(F)ccc2cc(O)cc(N3CCc4c(nc(OC[C@@]56CCCN5C[C@H](F)C6)nc4N4CC5C(=O)NC(=O)C5C4)C3)c12 (stereo partly drawn) [Example 24, 5-(7-(8-ethyl-7-fluoro-3-hydroxynaphthalen-1-yl)-2-(((2R,7aS)-2-fluorohexahydro-1H-pyrrolizin-7a-yl)methoxy)-5,6,7,8-tetrahydropyrido[3,4-d]pyrimidin-4-yl)tetrahydropyrrolo[3,4-c]pyrrole-1,3(2H,3aH)-dione] | 10 nM | 6 nM | 59 nM | 35 nM | 2950 nM | – | ≤ 2 nM | ≤ 2 nM | ≤ 2 nM | 17 nM | 148 nM | 65 nM | 134 nM | 25 nM |
| CCc1c(F)ccc2cc(O)cc(N3CCc4c(nc(OC[C@@]56CCCN5C[C@H](F)C6)nc4N4CCCn5nc(C(=O)NC(C)C)cc5C4)C3)c12 [Example 188, 5-(7-(8-ethyl-7-fluoro-3-hydroxynaphthalen-1-yl)-2-(((2R,7aS)-2-fluorotetrahydro-1H-pyrrolizin-7a(5H)-yl)methoxy)-5,6,7,8-tetrahydropyrido[3,4-d]pyrimidin-4-yl)-N-isopropyl-5,6,7,8-tetrahydro-4H-pyrazolo[1,5-a][1,4]diazepine-2-carboxamide] | 2 nM | 7 nM | 49 nM | 4 nM | 2880 nM | 3 nM | ≤ 2 nM | ≤ 2 nM | ≤ 2 nM | – | – | – | – | – |
| O=C1NC(=O)C2(CCCN(c3nc(OC[C@@]45CCCN4C[C@H](F)C5)nc4c3CCN(c3cc(O)cc5ccc(F)c(Cl)c35)C4)C2)N1 (stereo partly drawn) [Example 69, 7-(7-(8-chloro-7-fluoro-3-hydroxynaphthalen-1-yl)-2-(((2R,7aS)-2-fluorohexahydro-1H-pyrrolizin-7a-yl)methoxy)-5,6,7,8-tetrahydropyrido[3,4-d]pyrimidin-4-yl)-1,3,7-triazaspiro[4.5]decane-2,4-dione] | 122 nM | 41 nM | 68 nM | 194 nM | 578 nM | – | 52 nM | ≤ 2 nM | ≤ 2 nM | 59 nM | 164 nM | – | – | – |
